Experimental data reported in patent US20230078764A1 (Yumanity Therapeutics, Inc., priority 2019, published 2023).
Like-named read-outs stand apart in the source and are kept apart here.

Legend:
[1] = biological target: T1, human SCD5 (Homo sapiens, UniProt Q86SK9); test: Growth inhibition of yeast strain expressing human SCD5 as sole desaturase (OLE1 deleted), OD600 readout; type: cell-based
T1 construct: expressed in transfected cells; host or cells: yeast strain with OLE1 deleted, plasmid-borne human SCD5 (selected in SD-Ura)
T1 sequence (Q86SK9 1-330): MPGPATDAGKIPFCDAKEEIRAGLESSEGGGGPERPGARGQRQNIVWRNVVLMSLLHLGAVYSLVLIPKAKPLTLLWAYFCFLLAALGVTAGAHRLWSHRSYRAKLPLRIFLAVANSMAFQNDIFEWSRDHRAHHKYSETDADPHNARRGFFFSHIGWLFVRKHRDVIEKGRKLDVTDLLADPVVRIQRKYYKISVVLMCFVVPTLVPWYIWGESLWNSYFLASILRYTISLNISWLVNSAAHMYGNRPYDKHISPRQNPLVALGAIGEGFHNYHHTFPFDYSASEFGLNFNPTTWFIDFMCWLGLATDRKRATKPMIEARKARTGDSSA

[2] = biological target: T2, human SCD1 (Homo sapiens, UniProt O00767); test: Growth inhibition of yeast strain expressing human SCD1 as sole desaturase (OLE1 deleted), OD600 readout; type: cell-based
T2 construct: expressed in transfected cells; host or cells: yeast strain with OLE1 deleted, plasmid-borne human SCD1 (selected in SD-Ura)
T2 sequence (O00767 1-359): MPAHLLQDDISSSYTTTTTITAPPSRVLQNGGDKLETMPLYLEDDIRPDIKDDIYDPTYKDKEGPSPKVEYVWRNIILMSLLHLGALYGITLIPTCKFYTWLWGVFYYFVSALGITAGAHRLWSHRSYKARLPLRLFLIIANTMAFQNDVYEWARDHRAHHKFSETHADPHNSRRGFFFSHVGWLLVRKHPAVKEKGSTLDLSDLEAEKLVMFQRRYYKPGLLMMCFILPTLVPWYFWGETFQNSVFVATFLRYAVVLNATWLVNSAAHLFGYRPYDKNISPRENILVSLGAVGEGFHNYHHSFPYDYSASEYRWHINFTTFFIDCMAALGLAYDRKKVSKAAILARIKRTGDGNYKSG

[3] = yeast strain expressing human SCD5 as sole desaturase, growth (OD600) after 40 h at 30° C., read-out: SCD5 IC50
[4] = yeast strain expressing human SCD1 as sole desaturase, growth (OD600) after 40 h at 30° C., read-out: SCD1 IC50

Structure (SMILES) | IC50 [1, 3] | IC50 [2, 4] | IC50 ([1]; SCD5 IC50) | IC50 ([2]; SCD1 IC50)
O=C(Nc1ccc(Cc2cc(F)cc(Cl)c2)cn1)c1ccc(CO)nc1 [Compound 111, N-(5-(3-chloro-5-fluorobenzyl)pyridin-2-yl)-6-(hydroxymethyl)nicotinamide] | 10 nM | 10 nM |  | 
Cn1nc(C(=O)Nc2ccc(NCc3cccc(Cl)c3)cn2)ccc1=O [Compound 286] | 240 nM | 4000 nM |  | 
CN1N=C(C(=O)Nc2ccc(Cc3cccs3)nn2)CCC1=O [Compound 271] | 14800 nM | > 45000 nM |  | 
CN1N=C(C(=O)Nc2ccc(Cc3ccc(C4CC4)nc3)cn2)CCC1=O [Compound 392] | > 45000 nM | > 45000 nM |  | 
CN1N=C(C(=O)N(C)c2ncc(Cc3cccc(F)c3)s2)CCC1=O [Compound 221] | > 45000 nM | > 45000 nM |  | 
O=C(Nc1ccc(Nc2cccc(F)c2)cn1)c1ccc(=O)n(C2CC2)n1 [Compound 304] | 2700 nM | > 45000 nM |  | 
CC(O)C1CN(C(=O)Nc2ccc(Cc3cccc(Cl)c3)cn2)C1 (stereo not drawn) [Compound 472] | > 45000 nM | > 45000 nM |  | 
CNCc1ccc(C(=O)Nc2ccc(Cc3cccc(Cl)c3)cn2)cn1 [Compound 289] | 9200 nM | > 45000 nM |  | 
Cn1cc(NC(=O)c2ccc(Cc3ccc(F)c(F)c3)cn2)ccc1=O [Compound 313] | 20 nM | 1860 nM |  | 
Cn1nc(C(=O)Nc2ccc(Cc3ccc(F)c(F)c3)cn2)cc1O [Compound 324] | 1130 nM | > 45000 nM |  | 
Cn1nc(C(=O)Nc2nnc(Cc3cccc(F)c3)s2)ccc1=O [Compound 345] | 2520 nM | 3950 nM |  | 
CN1N=C(C(=O)Nc2ccc(CC3CCCCC3)nn2)CCC1=O [Compound 198, N-(6-(cyclohexylmethyl)pyridazin-3-yl)-1-methyl-6-oxo-1,4,5,6-tetrahydropyridazine-3-carboxamide] | 7180 nM | > 45000 nM |  | 
Cc1nccc(C(=O)Nc2ccc(Cc3cccc(Cl)c3)cn2)n1 [Compound 114, N-(5-(3-chlorobenzyl)pyridin-2-yl)-2-methylpyrimidine-4-carboxamide] | 10 nM | 50 nM |  | 
Cc1cc(C(=O)Nc2ccc(Cc3cccc(F)c3)cn2)nc(C)n1 [Compound 239] | 10 nM | 250 nM |  | 
Cc1ccnc(Cc2ccc(NC(=O)C3=NN(C)C(=O)CC3)nc2)c1 [Compound 469] | > 45000 nM | > 45000 nM |  | 
CC(C)n1cc(C(=O)Nc2ccc(Cc3cccc(Cl)c3)cn2)ccc1=O [Compound 83, N-(5-(3-chlorobenzyl)pyridin-2-yl)-1-isopropyl-6-oxo-1,6-dihydropyridine-3-carboxamide] |  | > 45000 nM | 420 nM | 
CN1C(=O)CCC1C(=O)Nc1ncc(Cc2cccc(F)c2)s1 (stereo not drawn) [Compound 400] | > 45000 nM | > 45000 nM |  | 
O=C(Nc1ccc(Cc2cccc(F)c2)cn1)c1ccc(=O)n(C(F)F)c1 [Compound 287] | 140 nM | 860 nM |  | 
Cn1nc(C(=O)Nc2nc(Br)c(Cc3cccc(F)c3)s2)ccc1=O [Compound 317] | 100 nM | 980 nM |  | 
CN(c1ccc(NC(=O)c2ccc(=O)n(C)c2)nc1)c1cccc(F)c1 [Compound 302] | 3340 nM | > 45000 nM |  | 
CS(=O)(=O)c1cccc(C(=O)Nc2ccc(Cc3cccc(F)c3)cn2)c1 [Compound 391] | > 45000 nM | 1240 nM |  | 
N#Cc1cc(Cl)cc(Cc2ccc(NC(=O)c3cnc(C#N)cn3)nc2)c1 [Compound 677] | 79 nM | > 45000 nM |  | 
O=C(Nc1ccc(Cc2cccc(F)c2)cn1)c1cscn1 [Compound 633] | 270 nM | 1800 nM |  | 
CCn1cc(C(=O)Nc2ccc(Cc3cc(F)cc(C#N)c3)cn2)cn1 [Compound 594] | 120 nM | 3100 nM |  | 
O=C(Nc1ccc(Cc2cccc(F)c2)cn1)c1ccc2nncn2c1 [Compound 151, N-(5-(3-fluorobenzyl)pyridin-2-yl)-[1,2,4]triazolo[4,3-a]pyridine-6-carboxamide] | 80 nM | 1340 nM |  | 
O=C(Nc1ncc(Br)cn1)c1ccc(Cc2cccc(F)c2)cn1 [Compound 631] | 2200 nM | 650 nM |  | 

Structure (SMILES) | IC50 [1, 3] | IC50 [2, 4] | IC50 ([1]; SCD5 IC50) | IC50 ([2]; SCD1 IC50)
Cc1ncc(C(=O)Nc2ccc(Cc3cccc(F)c3)cn2)cn1 [Compound 141, N-(5-(3-fluorobenzyl)pyridin-2-yl)-2-methylpyrimidine-5-carboxamide] | 160 nM | > 45000 nM |  | 
CN1N=C(C(=O)Nc2ccc(Cc3ccc(F)c(Cl)c3)nn2)CCC1=O [Compound 192, N-(6-(3-chloro-4-fluorobenzyl)pyridazin-3-yl)-1-methyl-6-oxo-1,4,5,6-tetrahydropyridazine-3-carboxamide] | 1310 nM | 11900 nM |  | 
N#Cc1ccc(C(=O)Nc2ccc(Cc3ccc(F)c(Cl)c3)cn2)nc1 [Compound 130, N-(5-(3-chloro-4-fluorobenzyl)pyridin-2-yl)-5-cyanopicolinamide] | 40 nM | > 45000 nM |  | 
Cn1nc(C(=O)Nc2ccc(Cc3cc(F)cc(F)c3)cn2)cc1O [Compound 325] | 660 nM | 16400 nM |  | 
Cn1cc(-c2ccc(NC(=O)Cc3cccc(F)c3)nc2)ccc1=O [Compound 457] | > 45000 nM | > 45000 nM |  | 
Cn1ccc(C(=O)Nc2ccc(Cc3ccc(F)c(F)c3)cn2)cc1=O [Compound 515] | 320 nM | 5900 nM |  | 
O=C(Nc1ccc(Cc2cccc(F)c2)cn1)c1ccc(=O)n(C2CC2)n1 [Compound 75, 1-cyclopropyl-N-(5-(3-fluorobenzyl)pyridin-2-yl)-6-oxo-1,6-dihydropyridazine-3-carboxamide] | 10 nM | 1490 nM |  | 
O=C(Nc1ccc(Cc2cccc(Cl)c2)cn1)c1ccn2cnnc2c1 [Compound 429] | > 45000 nM | > 45000 nM |  | 
CN1N=C(C(=O)Nc2ccc(OCc3cccc(Cl)c3)cn2)CCC1=O [Compound 170, N-(5-(3-chlorobenzyloxy)pyridin-2-yl)-1-methyl-6-oxo-1,4,5,6-tetrahydropyridazine-3-carboxamide] | 1070 nM | > 45000 nM |  | 
Cn1ccc(C(=O)Nc2ccc(Cc3cc(F)cc(C#N)c3)cn2)cc1=O [Compound 620] | 200 nM | 200 nM |  | 
CN1N=C(C(=O)Nc2ccc(Cc3cccc(Cl)c3)nn2)CCC1=O [Compound 197, N-(6-(3-chlorobenzyl)pyridazin-3-yl)-1-methyl-6-oxo-1,4,5,6-tetrahydropyridazine-3-carboxamide] | 370 nM | 2750 nM |  | 
CCn1cc(C(=O)Nc2ccc(Cc3cccc(F)c3)cn2)cn1 [Compound 355] | 160 nM | 540 nM |  | 
CCn1ccc(C(=O)Nc2ccc(Cc3ccc(F)c(F)c3)cn2)n1 [Compound 98, N-(5-(3,4-difluorobenzyl)pyridin-2-yl)-1-ethyl-1H-pyrazole-3-carboxamide] | 40 nM | 2960 nM |  | 
O=C(Nc1ccc(Cc2cc(F)cc(F)c2)cn1)c1cnnc(Cl)c1 [Compound 657] | 10 nM | 10 nM |  | 
O=C(Nc1ccc(Cc2cccc(Cl)c2)cn1)c1cnc(CO)c(F)c1 [Compound 290] | 10 nM | 10 nM |  | 
CN(c1ccc(NC(=O)c2ccc(=O)n(C)n2)nc1)c1cccc(F)c1 [Compound 301] | 5220 nM | > 45000 nM |  | 
N#Cc1cc(F)cc(Cc2ccc(NC(=O)c3cncc(CO)c3)nc2)c1 [Compound 628] | 30 nM | 190 nM |  | 
Cn1cc(C(=O)Nc2ccc(Cc3cccc(F)c3)cn2)ccc1=O [Compound 55, N-(5-(3-fluorobenzyl)pyridin-2-yl)-1-methyl-6-oxo-1,6-dihydropyridine-3-carboxamide] |  |  | 160 nM | 1210 nM
CN1CC(C(=O)Nc2ncc(Cc3cccc(F)c3)s2)CC1=O (stereo not drawn) [Compound 377] | > 45000 nM | > 45000 nM |  | 
Cn1cc(C(=O)Nc2ccc(C3(c4ccc(F)c(F)c4)CC3)cn2)ccc1=O [Compound 647] | 2400 nM | 9300 nM |  | 
Cn1cc(C(=O)Nc2ccc(Oc3ccc(F)c(F)c3)cn2)ccc1=O [Compound 587] | 1100 nM | 17000 nM |  | 
CN1N=C(C(=O)Nc2ccc(Cc3cccc(Cl)c3)cn2)CCC1=O [Example 15, N-(5-(3-chlorobenzyl)pyridin-2-yl)-1-methyl-6-oxo-1,4,5,6-tetrahydropyridazine-3-carboxamide] | 450 nM | > 45000 nM |  | 
N#Cc1ccc(C(=O)Nc2ccc(Cc3cc(F)ccc3F)cn2)cn1 [Compound 629] | 250 nM | 3300 nM |  | 
Cn1nc(C(=O)Nc2ccc(COc3cc(F)cc(F)c3)cn2)ccc1=O [Compound 658] | 180 nM | 1600 nM |  | 
C=C(c1ccc(C(=O)Nc2ccc(Cc3cccc(Cl)c3)cn2)cn1)C(F)(F)F [Compound 499] | 820 nM | 10000 nM |  | 
